Measured values: patent publication US20210023223A1, “HYDROCARBON / LIPID - CAROTENOID COMPLEXES” (IP SCIENCE LIMITED, priority 2018, published 2021)

Tests used:
[1] = Size of Canola oil lipid droplets, microscopy; assay type: physicochemical
Excerpt: (§1) For measurement of lipid droplets and fat globules and quantification of their size binocular microscope Olympus BX41 was used with Cell^B software for morphometric analysis. All parameters were collected from 10 randomly selected microscopic fields at ×1000).
(§2) The effect of adding lycopene into another polyunsaturated oil, in this case cod liver oil, was a dose-dependent increase in the size of its lipid structures. For Olive and Sunflower oils this increase in diameter caused by lycopene could reach 20 fold, for Canola and Cod Liver oil it was 50 or 100 fold.

[2] = Heating dairy butter to boiling point; assay type: physicochemical
Experimental: Small pieces of butter (about 1 g) were placed in a metallic tray. They were heated to 350° C. (Revotherm, Scientific Instruments Ltd.) and boiled for 3 minutes. Time taken to reach boiling point was fixed with a laboratory timer (QUANTUM).

[3] = Size of pork fat globules, microscopy; assay type: physicochemical; settings: maximum doses
Experimental: as §1
When carotenoids were added to animal fat, with a relatively high percentage of saturated fatty acid, a similar trend in increased fat globules was observed, although to a lesser degree. The maximum doses of lycopene or astaxanthin caused a similar increase in the pork fat globules diameter, only 50%, FIG. 2 and table 3.

[4] = Size of Sunflower Oil lipid droplets, microscopy; assay type: physicochemical; parameters: Size of Sunflower Oil lipid droplets, Mean / Sunflower Oil lipid droplets, Droplet square: unit not given here
Excerpt: as §1

[5] = test system: moderately obese volunteers; test: Lipoprotein O2 by catalymetry; assay type: in vivo, human
Experimental: (§3) Study Design. The total number of volunteers recruited to take part in the study was 18 (9 male and 9 female subjects) Caucasians 40-67 years old.
(§4) Products Formulated with Lycopene was developed and made by Lycotec Ltd. (Cambridge, United Kingdom). The daily dose was 1 capsule of 20 mg of lycopene, and it was taken with the main meal of the day. The period of administration was 1 month.
LDL-Px and Lipoprotein O2. Activity of serum LDL peroxidase proteins, which include IgG with superoxide dismutase activity, was measured as described previously. Plasma oxygen, which carried by blood lipids/lipoproteins was measured by catalymetry.

Melting time at 37° C. = assay type: physicochemical
Experimental: (§5) Approximately 20 mg of butter, or pork fat, or beef fat, or cocoa butter, or chocolate, with or without certain concentrations of carotenoids, were placed on the surface of the laboratory slides and incubated at 37° C. in a laboratory incubator (TLK39).
Results presented in FIG. 15 show three different carotenoids—lycopene, lutein and astaxanthin, can reduce, albeit to a different degree, the melting time of dark chocolate regardless of its tempering protocols: Protocol I—28° C., Protocol II—29° C., Protocol III—30° C.

[6] = Size of lipid droplets of dairy butter, microscopy; assay type: physicochemical
Excerpt: as §1
Incorporation of lycopene into the butter led to a significant increase in the size of its lipid droplets and many reached more than 100 or even 300 fold of their diameter. This effect was dose-dependent, and can already be observed for less than 1 molecule of lycopene to 224,000 molecules of butter triglycerides.

[7] = Size of Cod Liver oil lipid structures, microscopy; assay type: physicochemical
Excerpt: as §1, §2

[8] = test system: moderately obese volunteers; test: Inflammatory Oxidative Damage (IOD) of serum; assay type: in vivo, human
Experimental: as §3, §4
Serum samples were incubated overnight in 0.05 M PBS acetate buffer (pH 5.6) to imitate the type of oxidative damage, which occurs during the release of lysosomes following neutrophil degranulation. The following morning the reaction was stopped using trichloroacetic acid. The concentration of the end products such as malonic dialdehyde (MDA), and other possible thiobarbituric acid reactive substances (TBARS), was then measured by colorimetry using reagents and kits from Cayman Chemical (MC, USA).

Melting time = assay type: physicochemical; settings: lycopene 0.25 to 0.5 mg per 1 gram
Experimental: as §5
For example, in experiments with the chocolate spread, when the lycopene was 0.25 to 0.5 mg per 1 gram of this product its melting time reduced by 30-35%, FIG. 18.

[9] = Acid induced degradation at pH 2.5, gas chromatography; assay type: physicochemical; settings: lycopene 1 mg or 3 mg per 1 gram of DHA; 37° C.
[10] = lycopene dose 0.1 per 30 g of the oil
[11] = lycopene dose 0.5 per 30 g of the oil
[12] = lycopene dose 1.0 per 30 g of the oil
[13] = lycopene dose 2.0 per 30 g of the oil
[14] = lycopene dose 3.5 per 30 g of the oil
[15] = lycopene dose 7.0 per 30 g of the oil
[16] = lycopene dose 10.0 per 30 g of the oil
[17] = after 20 mg lycopene daily for one month

- Increase in lipid droplet diameter [1]: 50 fold
- Reduction of time to bring butter to its boiling point ([2]; number of lycopene molecules increased to 10): 75%
- Reduction of time to bring butter to its boiling point ([2]; one molecule of lycopene to more than 22,000 molecules of butter triglycerides): 25%
- Increase in the pork fat globules diameter [3]: 50%
- Size of Sunflower Oil lipid droplets, Mean [4, 10]: 65.16
- Sunflower Oil lipid droplets, Droplet square [4, 10]: 0.36
- Size of Sunflower Oil lipid droplets, Mean [4, 11]: 144.82
- Sunflower Oil lipid droplets, Droplet square [4, 11]: 1.20
- Size of Sunflower Oil lipid droplets, Mean [4, 12]: 79.73
- Sunflower Oil lipid droplets, Droplet square [4, 12]: 0.72
- Size of Sunflower Oil lipid droplets, Mean [4, 13]: 149.25
- Sunflower Oil lipid droplets, Droplet square [4, 13]: 1.32
- Size of Sunflower Oil lipid droplets, Mean [4, 14]: 286.00
- Sunflower Oil lipid droplets, Droplet square [4, 14]: 4.03
- Size of Sunflower Oil lipid droplets, Mean [4, 15]: 202.78
- Sunflower Oil lipid droplets, Droplet square [4, 15]: 3.44
- Size of Sunflower Oil lipid droplets, Mean [4, 16]: 434.81
- Sunflower Oil lipid droplets, Droplet square [4, 16]: 20.71
- Increase in lipid droplet diameter, could reach ([4]; sunflower oil): 20 fold
- Melting time of dark chocolate (Melting time at 37° C.): 8 min
- Size of butter lipid droplets, Mean ([6]; lycopene dose 0.1 per 30 g of butter): 34.32 μm
- Size of butter lipid droplets, Mean ([6]; lycopene dose 0.5 per 30 g of butter): 60.39 μm
- Size of butter lipid droplets, Mean ([6]; lycopene dose 1.0 per 30 g of butter): 92.35 μm
- Size of butter lipid droplets, Mean ([6]; lycopene dose 3.5 per 30 g of butter): 90.18 μm
- Size of butter lipid droplets, Mean ([6]; lycopene dose 7.0 per 30 g of butter): 178.95 μm
- Size of butter lipid droplets, Mean ([6]; lycopene dose 10.0 per 30 g of butter): 141.17 μm
- Increase in the size of butter lipid droplets (diameter) ([6]; many droplets, 'more than 100 or even 300 fold'): more than 100 fold
- Increase in lipid droplet diameter [7]: 100 fold
- Reduction of melting time of chocolate spread (Melting time): 30-35%
- Degradation of DHA at pH2.5 [9]: completely prevented
Structure (SMILES): CC(C)=CCC/C(C)=C/C=C/C(C)=C/C=C/C(C)=C/C=C/C=C(C)/C=C/C=C(C)/C=C/C=C(\C)CCC=C(C)C [Lycopene]
- Lipoprotein O2 [5, 17]: 3.44 ± 0.27 µM
- Lipoprotein O2 ([5]; before, n = 18): 2.94 ± 0.25 µM
- IOD [8, 17]: 60 ± 5.8 μM MDA
- IOD ([8]; before, n = 18): 107 ± 11.6 μM MDA
